Measurements taken from PMC3731299, “Isoniazid Inhibits the Heme-Based Reactivity of Mycobacterium tuberculosis Truncated Hemoglobin N” (PLoS ONE, 2013).
pKd: −log10 of the molar value. Where two headings read alike, the source gives them in different places.

What was measured:
[1] = biological target: T1, Mt-trHbN(II) (Mycobacterium tuberculosis, UniProt P9WN25); format: binding
T1 construct: made in house

[2] = biological target: T2, Mt-trHbN(III) (Mycobacterium tuberculosis, UniProt P9WN25); assay: biochemical; format: binding
T2 construct: made in house

[3] = biological target: KatG(III); parameters: method as in PMID 17309235; details: pH 7.2, 25.0°C, cited from earlier work
[4] = biological target: T1, Mt-trHbN(II); assay: Isoniazid binding to Mt-trHbN(II), stopped-flow, anaerobic
[5] = biological target: T2, Mt-trHbN(III); format: biochemical
[6] = biological target: T2, Mt-trHbN(III); assay: biochemical; format: binding; remark: listed apart in the source
[7] = biological target: T1, Mt-trHbN(II); assay: O2 binding to Mt-trHbN(II) in the absence and presence of isoniazid (tonometer method); details: [isoniazid] = 1.0×10^−2 M
Method: The value of B was determined by the tonometer method adding small volumes of air to the Mt-trHbN(II) solution (1.3×10^−6 M), in the absence and presence of isoniazid ( = 1.0×10^−2 M; B ^obs).

[8] = biological target: T2, Mt-trHbN(III); assay: Peroxynitrite isomerization by Mt-trHbN(III) in the absence and presence of isoniazid; format: biochemical
Method: Rapid-mixing experiments were performed using either the SX18.MV stopped-flow apparatus (Applied Photophysics, Salisbury, United Kingdom) or the SFM-20 stopped-flow apparatus (Bio-Logic SAS, Claix, France); the dead time was 1.0 ms.
(§1) Kinetics of peroxynitrite isomerization by Mt-trHbN(III) in the absence and presence of isoniazid was recorded spectrophotometrically at 302 nm (ε302 nm = 1.705×10^3 M^−1 cm^−1) [60]–[67] in the absence and presence of Mt-trHbN(III) (final concentration 2.5×10^−6 – 1.0×10^−5 M) and isoniazid (final concentration 3.0×10^−5 – 4.0×10^−4 M) by rapid mixing the Mt-trHbN(III) or buffer solution with the peroxynitrite solution (final concentration 2.5×10^−4 M).
Kinetics of peroxynitrite isomerization by Mt-trHbN(III) in the absence and presence of isoniazid was analyzed in the framework of the minimum reaction mechanism depicted by Scheme D [60]–[67]: [drawing 11] (D)
Values of the pseudo-first-order rate constant for Mt-trHbN(III)-mediated peroxynitrite isomerization (i.e., l ^obs) were determined in the absence and presence of isoniazid according to Equation 8 [60]–[67]: [drawing 12] (8)
Values of the second-order rate constant for Mt-trHbN(III)-mediated peroxynitrite isomerization (i.e., l on) and of the first-order rate constant for peroxynitrite isomerization in the absence of Mt-trHbN(III) (i.e., l 0) were determined from the linear dependence of l ^obs values on the Mt-trHbN(III) concentration according to Equation 9 [60]–[67]: [drawing 13] (9)
The value of K for isoniazid binding to Mt-trHbN(III) was determined from the dependence of l on the drug concentration (i.e., 3.0×10^−5 M ≤ [isoniazid] ≤4.0×10^−4 M) according to Equation 11 [60]–[67]: [drawing 15] (11) where l on ^app is the value of l on in the presence of isoniazid.

[9] = test system: plasma protein; parameters: method as in ref 89 = [89]; 89 Medical Economics (2004) Drug Information for the Health Care Professional, Thomson PDR, Montvale, p. 1689.; details: cited from earlier work
[10] = Peroxynitrite isomerization in the absence of Mt-trHbN(III); details: pH 7.0, 20.0°C
Method: as §1
Values of l 0 for peroxynitrite isomerization in the absence of Mt-trHbN(III) were also determined in the absence and presence of isoniazid from the analysis of the time-dependent absorbance decrease at 302 nm according to Equation 10 [60]–[67]: [drawing 14] (10)

[11] = absence of Mt-trHbN(III), isoniazid and azide
[12] = no Mt-trHbN(III), isoniazid 1.0×10^−2 M, pH 7.0, 20.0°C
[13] = Mt-trHbN(III) 5.0×10^−5 M, isoniazid 1.0×10^−2 M, pH 7.0, 20.0°C
[14] = isoniazid 1.0×10^−4 M, pH 7.0, 20.0°C
[15] = isoniazid 1.2×10^−4 M, pH 7.0, 20.0°C
[16] = isoniazid 2.0×10^−4 M, pH 7.0, 20.0°C
[17] = isoniazid 2.4×10^−4 M, pH 7.0, 20.0°C
[18] = isoniazid 3.0×10^−5 M, pH 7.0, 20.0°C
[19] = isoniazid 5.0×10^−5 M, pH 7.0, 20.0°C
[20] = isoniazid 6.0×10^−5 M, pH 7.0, 20.0°C

## NNC(=O)c1ccncc1 [isoniazid]
[1]; 5.0×10^−3 M isoniazid
  effect of isoniazid on CO binding to Mt-trHbN(II): grossly impairs CO binding
[1]; [isoniazid] ≥1.0×10^−2 M, data not shown
  phases of CO binding to Mt-trHbN(II): only the slow phase is observed
[2]; pH 7
  Hill coefficient n for isoniazid binding to Mt-trHbN(III): 1.01±0.02
[2]; pH 7.0, 20.0°C, Equation 3, read-out: first-order dissociation rate constant k off
  koff: 0.46 s⁻¹
[2]; pH 7.0, 20.0°C, Equation 3, read-out: second-order association rate constant k on
  kon: 5300 M⁻¹ s⁻¹
[2]; pH 7.0, 20.0°C, obtained at equilibrium, Equation 1, read-out: dissociation equilibrium constant K for isoniazid binding to Mt-trHbN(III)
  pKd: 3.96
[2]; pH 7.0, 20.0°C, read-out: K calculated from kinetic parameters (k off/k on)
  pKd: 4.06
[11]
  average yield of NO2 –: 29%
  average yield of NO3 –: 72%
[12]
  NO2 –: 31±4%
  NO3 –: 71±6%
  NO3 – + NO2 –: 102%
pH 7
  NO2 –: 28±4%
  NO3 –: 72±5%
  NO3 – + NO2 –: 100%
[3]; obtained at equilibrium, read-out: K for isoniazid binding to KatG(III)
  pKd: ~6.00
[3]
  k off for isoniazid binding to KatG(III): k off = 2.0×10^−2 s^−1
  k on for isoniazid binding to KatG(III): k on = 4.8×10^2 M^−1 s^−1
[3]; read-out: K calculated from kinetic parameters (k off/k on) for KatG(III)
  pKd: 4.38
[4]; Mt-trHbN(II) versus Mt-trHbN(III)
  lower affinity for the ferrous form than for the ferric form: 10 fold
[4]; average of the D values here determined
  pKd: 2.92
[4]; pH 7.0, 20.0°C
  Hill coefficient n for isoniazid binding to Mt-trHbN(II): 1.01±0.01
[4]; pH 7.0, 20.0°C, Equation 14, read-out: first-order dissociation rate constant d off
  koff: 1.5 s⁻¹
[4]; pH 7.0, 20.0°C, Equation 14, read-out: second-order association rate constant d on
  kon: 1300 M⁻¹ s⁻¹
[5]
  average yield of NO2 –: 26%
  average yield of NO3 –: 74%
[5]; [13]
  NO2 –: 25±4%
  NO3 –: 74±8%
  NO3 – + NO2 –: 99%
[5]; pH 7
  NO2 –: 26±4%
  NO3 –: 75±8%
  NO3 – + NO2 –: 101%
[6]; 1.0×10^−3 M ≤ [isoniazid] ≤4.0×10^−3 M
  mode of inhibition of azide binding to Mt-trHbN(III): inhibits competitively
[6]; Equation 7, H obs/H ratio versus [isoniazid] 1.0×10^−3 to 4.0×10^−3 M, pH 7.0, 20.0°C
  pKd: 4.02
[7]
  mode of inhibition of O2 binding to Mt-trHbN(II): inhibits competitively
[8]; Equation 11, dependence of l on [isoniazid] 3.0×10^−5 to 4.0×10^−4 M, pH 7.0, 20.0°C, read-out: K for isoniazid binding to Mt-trHbN(III) from inhibition of peroxynitrite isomerization
  pKd: 3.89
[8]; [isoniazid] >10×K
  Mt-trHbN(III) catalysis of peroxynitrite isomerization: does not catalyze the isomerization of peroxynitrite
[8]; absence and presence of isoniazid, pH 7.0, 20.0°C
  average l 0 value (l 0 unaffected by isoniazid): 0.28 s⁻¹
[8]; from dependence of l on isoniazid concentration
  Hill coefficient n for isoniazid binding to Mt-trHbN(III): 1.00±0.02
[8]; [14]
  l 0 for Mt-trHbN(III)-catalyzed peroxynitrite isomerization (y intercept): (3.1±0.3)×10^−1 s^−1
  l on app, second-order rate constant for Mt-trHbN(III)-mediated peroxynitrite isomerization: (3.3±0.3)×10^4 M^−1 s^−1
[8]; [15]
  l 0 for Mt-trHbN(III)-catalyzed peroxynitrite isomerization (y intercept): (2.6±0.3)×10^−1 s^−1
  l on app, second-order rate constant for Mt-trHbN(III)-mediated peroxynitrite isomerization: (3.2±0.3)×10^4 M^−1 s^−1
[8]; [16]
  l 0 for Mt-trHbN(III)-catalyzed peroxynitrite isomerization (y intercept): (2.5±0.3)×10^−1 s^−1
  l on app, second-order rate constant for Mt-trHbN(III)-mediated peroxynitrite isomerization: (2.7±0.3)×10^4 M^−1 s^−1
[8]; [17]
  l 0 for Mt-trHbN(III)-catalyzed peroxynitrite isomerization (y intercept): (3.0±0.3)×10^−1 s^−1
  l on app, second-order rate constant for Mt-trHbN(III)-mediated peroxynitrite isomerization: (2.4±0.3)×10^4 M^−1 s^−1
[8]; [18]
  l 0 for Mt-trHbN(III)-catalyzed peroxynitrite isomerization (y intercept): (2.9±0.3)×10^−1 s^−1
  l on app, second-order rate constant for Mt-trHbN(III)-mediated peroxynitrite isomerization: (5.1±0.5)×10^4 M^−1 s^−1
[8]; isoniazid 4.0×10^−4 M, pH 7.0, 20.0°C
  l 0 for Mt-trHbN(III)-catalyzed peroxynitrite isomerization (y intercept): (2.5±0.3)×10^−1 s^−1
[8]; [19]
  l 0 for Mt-trHbN(III)-catalyzed peroxynitrite isomerization (y intercept): (2.8±0.3)×10^−1 s^−1
  l on app, second-order rate constant for Mt-trHbN(III)-mediated peroxynitrite isomerization: (4.4±0.4)×10^4 M^−1 s^−1
[8]; [20]
  l 0 for Mt-trHbN(III)-catalyzed peroxynitrite isomerization (y intercept): (3.0±0.3)×10^−1 s^−1
  l on app, second-order rate constant for Mt-trHbN(III)-mediated peroxynitrite isomerization: (4.1±0.4)×10^4 M^−1 s^−1
[9]
  plasma protein binding: very poor
[10]; isoniazid 1.0×10^−4 M
  l 0 for peroxynitrite isomerization in the absence of Mt-trHbN(III): (3.2±0.3)×10 ^−1 s^−1
[10]; isoniazid 1.2×10^−4 M
  l 0 for peroxynitrite isomerization in the absence of Mt-trHbN(III): (2.4±0.3)×10 ^−1 s^−1
[10]; isoniazid 2.0×10^−4 M
  l 0 for peroxynitrite isomerization in the absence of Mt-trHbN(III): (2.6±0.3) ×10 ^−1 s^−1
[10]; isoniazid 2.4×10^−4 M
  l 0 for peroxynitrite isomerization in the absence of Mt-trHbN(III): (2.9±0.3)×10 ^−1 s^−1
[10]; isoniazid 3.0×10^−5 M
  l 0 for peroxynitrite isomerization in the absence of Mt-trHbN(III): (2.7±0.3)×10 ^−1 s^−1
[10]; isoniazid 4.0×10^−4 M
  l 0 for peroxynitrite isomerization in the absence of Mt-trHbN(III): (2.6±0.3)×10 ^−1 s^−1
[10]; isoniazid 5.0×10^−5 M
  l 0 for peroxynitrite isomerization in the absence of Mt-trHbN(III): (3.0 ±0.3)×10 ^−1 s^−1
[10]; isoniazid 6.0×10^−5 M
  l 0 for peroxynitrite isomerization in the absence of Mt-trHbN(III): (2.6±0.3)×10 ^−1 s^−1
